From article PMC6503114, “Application of Antimicrobial Peptides of the Innate Immune System in Combination With Conventional Antibiotics—A Novel Way to Combat Antibiotic Resistance?” (Frontiers in Cellular and Infection Microbiology, 2019)
≈ marks a conversion by molar mass, not a printed value. Where two headings read alike, the source gives them in different places. Where no end group is shown, it is not given here.

Key:
MRSA ATCC 33591 = assay: microbe, parasite or virus in culture; format: cell-based, Staphylococcus aureus; details: median of 3–6 experiments, square brackets = twice the maximal tested concentration
Experimental: (§4) Prior to the “checkerboard” synergy test the minimal inhibitory concentrations (MIC) of individual substances were determined using broth microdilution assay. Testing was performed in 60-well polystyrene Terasaki microplates with V-shaped bottom generally according to the guidelines of the European Committee for Antimicrobial Susceptibility Testing with subtle modifications designed for AMP testing (Tossi et al., [1997]; Wiegand et al., [2008]). Cultivation of bacteria was carried out in 2.1% Müller-Hinton broth at 37°C with shaking. Two-fold serial dilutions of peptides, antibiotics and other antimicrobials were made with 10 mM sodium phosphate buffer, pH 7.4, containing 0.1% of BSA. The plates were preliminary incubated with 0.1% BSA for 1 h at 37°C to reduce a non-specific binding of peptides to the plates. After that BSA was removed, and serial dilutions were added into the plate wells in triplicates followed by the same volume of the suspension of bacterial cells in logarithmic phase of growth in concentration of 1 × 10^6 CFU/ml. After the 18 h overnight incubation at 37°C, the MIC value for each compound was determined as its lowest concentration completely inhibiting the visible growth of bacteria. The final results were calculated as median values based on 3–6 independent experiments.

[1] = test system: A. baumannii (clin. isol.); assay: microbe, parasite or virus in culture; format: cell-based, Acinetobacter baumannii
Experimental: as §4

Human PBMC = assay: MTT-test
Experimental: To obtain neutrophils and mononuclear cells, whole heparinized blood was diluted with sterile PBS in a 1:1 ratio and carefully inserted into the sterile polystyrene 50 ml tube upon the 5 ml of the sterile Ficoll-400 (Pharmacia, Sweden) with a density of 1.077. The tube was centrifuged at 600 g and 4°C for 40 min. After separation, the mononuclear “ring” located between the blood plasma and Ficoll was collected with a Pasteur pipette, transferred to another tube, and washed twice with 10 ml of sterile PBS by centrifugation for 10 min at 300 g and 4°C.
We calculated Fractional Effective Concentration Index (FECI), which could be seen as a particular case of the interaction index (I) proposed by Berenbaum ([1977]) or of the similar combination index (CI) proposed by Chou and Talalay ([1983]), according to the equation below: […]
(§1) Here, [MEC A] and [MEC B] are the minimum effective concentrations (MEC) of substances A and B, when they are used alone. […] [A] and [B] are respective concentrations of substances A and B in their combination, where the same statistically significant difference is detected. A non-parametric Mann-Whitney U-test (p < 0.05 or p < 0.01) was used for the mentioned statistical comparison.
(§2) We have chosen the same intervals as that of FICI to determine synergy, additivity, independent action, and antagonism based on the minimal FECI values. However, in case of cytotoxic or hemolytic effect we were interested mainly in testing the possibility of additive or synergistic interaction itself, and not in assessing the exact magnitude of such interaction. Thus, in contrast to the “checkerboard titration” method used for combined antimicrobial activity investigation, studying the combined cytotoxic effect, we considered only two combinations of concentrations for the substances A and B in the mixture: • (½ MEC A + ½ MEC B), which, if found effective, provides the FECI value of 1 (the threshold value for additivity); • (¼ MEC A + ¼ MEC B), which, if found effective, provides the FECI value of 0.5 (the threshold value for synergetic interaction).
(§3) When action on tumor cells was tested in combination with antitumor antibiotic the lower concentrations up to ( 1/16 MEC A + 1/16 MEC B) as in checkerboard titration were additionally examined to assess the magnitude of synergistic effect more precisely. The final conclusion was made based on the three independent experiments.
Standard MTT-test (Mosmann, [1983]) was used for the examination of the cytotoxic activity of antimicrobial compounds and their combinations toward varied eukaryotic cells. Briefly, cell suspensions in RPMI-1640 prepared as described in Eukaryotic Cells were dispensed into the 96-well microplates (2 × 10^5 cells/well). Then, serial dilutions of AMPs, or other antibiotic compounds, or their mixtures in RPMI-1640 were added. In positive controls (100% cell survival) the according volume of RPMI-1640 without test substances was added instead. The final volume in each well was 100 μl. Negative controls (0% cell survival) were made with 100 μl of the sterile RPMI-1640. The plates were incubated at 37°C under 5% CO2 for 24 h. Four hours before the end of incubation, 10 μl of metabolic marker MTT−3-(4,5-dimethylthiazol-2-yl)-2,5-diphenyltetrazolium bromide (5 mg/ml, diluted in PBS) was added to each well. Incubation was stopped by adding 90 μl of isopropanol containing 0.04 M HCl. Content of the wells was thoroughly mixed, so that the formazan crystals, formed in case of the reduction of MTT in presence of actively metabolizing cells, were fully dissolved. The optical density of the samples was evaluated at 540 nm, subtracting the background absorbance at 690 nm, by SpectraMax 250 Spectrophotometer (Molecular Devices, USA). The experiments were repeated at least three times. In each experiment test samples were made in triplicates and control samples were made in hexaplicates.

human erythrocytes = test system: human erythrocytes
Experimental: To obtain erythrocytes, heparinized blood was centrifuged for 10 min at 300 g and 4°C. The supernatant liquid was removed, 10 ml of cooled PBS containing 4 mM of EDTA (pH 7.4) was added to the precipitate, and the mixture was centrifuged for 10 min under the same conditions. Then, red blood cells were washed three more times with cooled PBS. The sedimented red blood cells were used for the hemolytic test.
as §1, §2, §3
Two hundred eighty microliters of erythrocyte precipitate obtained as described in section Eukaryotic Cells was added into the sterile 15 ml tube and its volume was adjusted to 10 ml with cooled PBS. Using 0.5 ml plastic tubes, 3 μl of the tested compound serially diluted in PBS or of the combination of two compounds were mixed with the 27 μl of the prepared erythrocyte suspension for each sample. For positive control (100% lysis of erythrocytes) 3 μl of the detergent (10% Triton X-100 solution in PBS) were added to the 27 μl of the erythrocyte suspension, and for negative control (0% lysis of erythrocytes) 3 μl of the PBS were used instead of any cell-damaging compound. […] After incubation, the hemolysis process was stopped by the addition of 75 μl of cooled PBS. The samples were centrifuged at 5,000 g and 4°C for 4 min. The optical density of the supernatants was measured at a wavelength of 540 nm using SpectraMax 250 Spectrophotometer (Molecular Devices, USA). The experiments were repeated three times. In each experiment all the test or control samples were made in triplicates. The percentage of hemolysis of erythrocytes was assessed by the following formula:
where ODsample, OD0%lysis, and OD100%lysis are values of the OD at 540 nm for the test sample, negative (0% lysis) control, and positive (100% lysis) control, respectively. However, due to the design of the study of combined action, described above in Combined Hemolytic or Cytotoxic Action, the obtained ODsample and OD0%lysis values were rather used to determine MECs and FECI by the Mann-Whitney U-test (p < 0.05, n1, n2 = 3).

[2] = Staphylococcus aureus, read-out: MIC
[3] = A. baumannii (clin. isol.), susceptible, median of 3–6 experiments, read-out: MIC
[4] = Acinetobacter baumannii, A. baumannii (clin. isol.), susceptible, median of 3–6 experiments, read-out: MIC
[5] = Human PBMC, normal cells, MTT, 24 h, square brackets = twice the maximal tested concentration

| Compound | MIC (MRSA ATCC 33591; [2]) [µM] | MEC of cytotoxic action (Human PBMC; human, 24 h) | MEC of hemolysis of human erythrocytes (human erythrocytes; human, 30 min) | MIC [1, 4] [µM] | also measured |
| --- | --- | --- | --- | --- | --- |
| CO[C@H]1/C=C/O[C@@]2(C)Oc3c(C)c(O)c4c(O)c(c(/C=N/N5CCN(C)CC5)c(O)c4c3C2=O)NC(=O)/C(C)=C\C=C\[C@H](C)[C@H](O)[C@@H](C)[C@@H](O)[C@@H](C)[C@H](OC(C)=O)[C@@H]1C [Rifampicin] | 0.003 (≈ 0.00247 µg/mL) | >20 [40] μM | 20 µM | – | MIC ([1]; Acinetobacter baumannii): 0.125 µM (≈ 0.103 µg/mL); hemolytic action (in words) (human erythrocytes): slight hemolityc action |
| Lysozyme: egg white lysozyme, antimicrobial protein, from BioChemica | – | – | – | – | MIC (MRSA ATCC 33591): >250 [500] μM; MIC [1, 3]: 1.2 µM; MEC of cytotoxic action (Human PBMC): >50 [100] μM; MEC of hemolysis of human erythrocytes (human erythrocytes): >50 [100] μM |
| CC1COc2c(N3CCN(C)CC3)c(F)cc3c(=O)c(C(=O)O)cn1c23 (stereo not drawn) [Ofloxacin] | 0.625 (≈ 0.226 µg/mL) | >50 [100] μM | >50 [100] μM | 0.3 (≈ 0.108 µg/mL) | – |
| RFRLPFRRPPIRIHPPPFYPPFRRFL-NH2 (C-terminus assumed) [ChBac3.4] | – | – | – | – | MEC of cytotoxic action (Human PBMC): 20 µM; MEC of hemolysis of human erythrocytes (human erythrocytes): >50 [100] μM |
| CC[C@H](C)[C@H](NC(=O)[C@H](CCCCN)NC(=O)[C@H](CCC(=O)O)NC(=O)[C@H](CCCCN)NC(=O)[C@H](CO)NC(=O)[C@H](CCCCN)NC(=O)[C@H](CCCNC(=N)N)NC(=O)[C@H](Cc1ccccc1)NC(=O)[C@H](Cc1ccccc1)NC(=O)[C@H](CC(=O)O)NC(=O)CNC(=O)[C@H](CC(C)C)NC(=O)[C@@H](N)CC(C)C)C(=O)NCC(=O)N[C@@H](CCCCN)C(=O)N[C@@H](CCC(=O)O)C(=O)N[C@@H](Cc1ccccc1)C(=O)N[C@@H](CCCCN)C(=O)N[C@@H](CCCNC(=N)N)C(=O)N[C@H](C(=O)N[C@H](C(=O)N[C@@H](CCC(N)=O)C(=O)N[C@@H](CCCNC(=N)N)C(=O)N[C@H](C(=O)N[C@@H](CCCCN)C(=O)N[C@@H](CC(=O)O)C(=O)N[C@@H](Cc1ccccc1)C(=O)N[C@@H](CC(C)C)C(=O)N[C@@H](CCCNC(=N)N)C(=O)N[C@@H](CC(N)=O)C(=O)N[C@@H](CC(C)C)C(=O)N[C@H](C(=O)N1CCC[C@H]1C(=O)N[C@@H](CCCNC(=N)N)C(=O)N[C@H](C(=O)N[C@@H](CCC(=O)O)C(=O)N[C@@H](CO)C(=O)O)[C@@H](C)O)C(C)C)[C@@H](C)CC)C(C)C)[C@@H](C)CC [LL-37] | – | – | – | – | MEC of cytotoxic action (Human PBMC; [5]): 12 µM; MEC of hemolysis of human erythrocytes (human erythrocytes; 30 min, 37°C, no blood serum): 5.0 µM |
| CNC(C)C1CCC(N)C(OC2C(N)CC(N)C(OC3OCC(C)(O)C(NC)C3O)C2O)O1 (stereo not drawn) [Gentamicin] | 0.16 (≈ 0.0764 µg/mL) | >50 [100] μM | >50 [100] μM | 0.06 (≈ 0.0287 µg/mL) | – |
| Polymyxin B | – | – | – | – | MIC (MRSA ATCC 33591; read-out: MIC): 12.5 µM; MIC [1, 3]: 1.25 µM; MEC of cytotoxic action (Human PBMC; [5]): 50 µM; MEC of hemolysis of human erythrocytes (human erythrocytes; 30 min, 37°C, no blood serum): >50 [100] μM |
| Cc1onc(-c2ccccc2)c1C(=O)N[C@@H]1C(=O)N2[C@@H]1SC(C)(C)[C@@H]2C(=O)O [Oxacillin] | 7.5 (≈ 3.01 µg/mL) | >50 [100] μM | 25 µM | 25 (≈ 10 µg/mL) | hemolytic action (in words) (human erythrocytes): slight hemolityc action |
